Results: patent US20240132431A1, “METHOD FOR ALKYLATING ACIDIC FUNCTIONAL GROUP” (Chugai Seiyaku Kabushiki Kaisha, priority 2021, published 2024)

Target: T1, Bcl-2 protein (Recombinant Human Bcl-2 Protein) (Homo sapiens, UniProt P10415)
T1 construct: purchased Novus NBP2-34889
Test: Binding evaluation of mixture library compounds to Bcl-2 using AS-MS (affinity selection mass spectrometry)
Procedure, shortened: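 Affinity selection MS: Bcl-2 20 μM + 1200-cpd mixture, […]/cpd, Tris pH 7.4 buffer w/ Tween-20, DTT; 1 h 23° C dark; P-2 spin SEC; MeCN/MeOH extraction; RP LC/MS. ASMS Ratio(%) = (A−C)/B×100.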

T1 sequence (P10415 whole entry): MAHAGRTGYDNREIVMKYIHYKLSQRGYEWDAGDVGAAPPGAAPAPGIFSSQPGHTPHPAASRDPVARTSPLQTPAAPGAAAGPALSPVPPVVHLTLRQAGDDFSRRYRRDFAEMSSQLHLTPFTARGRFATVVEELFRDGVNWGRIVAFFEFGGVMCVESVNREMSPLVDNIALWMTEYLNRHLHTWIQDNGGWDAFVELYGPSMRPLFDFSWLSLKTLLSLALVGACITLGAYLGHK

Row | Structure (SMILES) | ASMS ratio (%) (n = 1) | ASMS ratio (%) (n = 2)
1 | CCOc1cncc(-c2cc(CN3CCN(c4ccc(C(=O)NS(=O)(=O)c5ccc(NCCSc6ccccc6)c(C(F)(F)F)c5)cc4)CC3)cc(OC(C)C)c2)c1 [B2R058-01, 4-[4-[[3-(5-Ethoxypyridin-3-yl)-5-propan-2-yloxyphenyl]methyl]piperazin-1-yl]-N-[4-(2-phenylsulfanylethylamino)-3-(trifluoromethyl)phenyl]sulfonylbenzamide] | 13.0% | 4.8%
2 | CCOc1cccc(-c2cc(OC)c(CN3CCN(c4ccc(C(=O)NS(=O)(=O)c5ccc(NCCSc6ccccc6)c(C(F)(F)F)c5)cc4)CC3)c(OC)c2)c1 [B2R059-01, 4-[4-[[4-(3-Ethoxyphenyl)-2,6-dimethoxyphenyl]methyl]piperazin-1-yl]-N-[4-(2-phenylsulfanylethylamino)-3-(trifluoromethyl)phenyl]sulfonylbenzamide] | 0.0% | 0.0%
3 | CCOc1cncc(-c2cc(OC)c(CN3CCN(c4ccc(C(=O)NS(=O)(=O)c5ccc(NCCSc6ccccc6)c(C(F)(F)F)c5)cc4)CC3)c(OC)c2)c1 [B2R060-01, 4-[4-[[4-(5-Ethoxypyridin-3-yl)-2,6-dimethoxyphenyl]methyl]piperazin-1-yl]-N-[4-(2-phenylsulfanylethylamino)-3-(trifluoromethyl)phenyl]sulfonylbenzamide] | 3.9% | 0.0%
4 | CCOc1cccc(-c2cc(CN3CCN(c4ccc(C(=O)NS(=O)(=O)c5ccc(NCCSc6ccccc6)c(C(F)(F)F)c5)cc4)CC3)cc(C(F)(F)F)c2)c1 [B2R061-01, 4-[4-[[3-(3-Ethoxyphenyl)-5-(trifluoromethyl)phenyl]methyl]piperazin-1-yl]-N-[4-(2-phenylsulfanylethylamino)-3-(trifluoromethyl)phenyl]sulfonylbenzamide] | 9.1% | −6.0%
5 | CCOc1cncc(-c2cc(CN3CCN(c4ccc(C(=O)NS(=O)(=O)c5ccc(NCCSc6ccccc6)c(C(F)(F)F)c5)cc4)CC3)cc(C(F)(F)F)c2)c1 [B2R062-01, 4-[4-[[3-(5-Ethoxypyridin-3-yl)-5-(trifluoromethyl)phenyl]methyl]piperazin-1-yl]-N-[4-(2-phenylsulfanylethylamino)-3-(trifluoromethyl)phenyl]sulfonylbenzamide] | 0.0% | 0.0%
6 | CCOc1cccc(-c2cc(CN3CCN(c4ccc(C(=O)NS(=O)(=O)c5ccc(NCCSc6ccccc6)c(C(F)(F)F)c5)cc4)CC3)cc(OC(F)(F)F)c2)c1 [B2R063-01, 4-[4-[[3-(3-Ethoxyphenyl)-5-(trifluoromethoxy)phenyl]methyl]piperazin-1-yl]-N-[4-(2-phenylsulfanylethylamino)-3-(trifluoromethyl)phenyl]sulfonylbenzamide] | 8.2% | 4.6%
7 | CCOc1cncc(-c2cc(CN3CCN(c4ccc(C(=O)NS(=O)(=O)c5ccc(NCCSc6ccccc6)c(C(F)(F)F)c5)cc4)CC3)cc(OC(F)(F)F)c2)c1 [B2R064-01, 4-[4-[[3-(5-Ethoxypyridin-3-yl)-5-(trifluoromethoxy)phenyl]methyl]piperazin-1-yl]-N-[4-(2-phenylsulfanylethylamino)-3-(trifluoromethyl)phenyl]sulfonylbenzamide] | 4.2% | −7.4%
8 | CCOc1cccc(-c2ccc(CN3CCN(c4ccc(C(=O)NS(=O)(=O)c5ccc(NCCSc6ccccc6)c(C(F)(F)F)c5)cc4)CC3)c3ccccc23)c1 [B2R065-01] | 3.8% | 0.3%
9 | CCOc1cncc(-c2ccc(CN3CCN(c4ccc(C(=O)NS(=O)(=O)c5ccc(NCCSc6ccccc6)c(C(F)(F)F)c5)cc4)CC3)c3ccccc23)c1 [B2R066-01, 4-[4-[[4-(5-Ethoxypyridin-3-yl)naphthalen-1-yl]methyl]piperazin-1-yl]-N-[4-(2-phenylsulfanylethylamino)-3-(trifluoromethyl)phenyl]sulfonylbenzamide] | 19.8% | −10.7%
10 | CCOc1cccc(-c2csc(CN3CCN(c4ccc(C(=O)NS(=O)(=O)c5ccc(NCCSc6ccccc6)c(C(F)(F)F)c5)cc4)CC3)c2)c1 [B2R067-01, 4-[4-[[4-(3-Ethoxyphenyl)thiophen-2-yl]methyl]piperazin-1-yl]-N-[4-(2-phenylsulfanylethylamino)-3-(trifluoromethyl)phenyl]sulfonylbenzamide] | 8.0% | 0.0%
11 | CCOc1cncc(-c2csc(CN3CCN(c4ccc(C(=O)NS(=O)(=O)c5ccc(NCCSc6ccccc6)c(C(F)(F)F)c5)cc4)CC3)c2)c1 [B2R068-01, 4-[4-[[4-(5-Ethoxypyridin-3-yl)thiophen-2-yl]methyl]piperazin-1-yl]-N-[4-(2-phenylsulfanylethylamino)-3-(trifluoromethyl)phenyl]sulfonylbenzamide] | 0.0% | 0.0%
12 | CCOc1cccc(C#Cc2ccccc2CN2CCN(c3ccc(C(=O)NS(=O)(=O)c4ccc(NCCSc5ccccc5)c(C(F)(F)F)c4)cc3)CC2)c1 [B2R069-01, 4-[4-[[2-[2-(3-Ethoxyphenyl)ethynyl]phenyl]methyl]piperazin-1-yl]-N-[4-(2-phenylsulfanylethylamino)-3-(trifluoromethyl)phenyl]sulfonylbenzamide] | 12.3% | 18.5%

Further lines, results first:

Row | ASMS ratio (%) (n = 1) | ASMS ratio (%) (n = 2) | Structure (SMILES)
13 | 14.3% | −9.0% | CCOc1cccc(-c2ccccc2CN2CCN(c3ccc(C(=O)NS(=O)(=O)c4ccc(NCCSc5ccccc5)c(C(F)(F)F)c4)nn3)CC2)c1 [B2R071-01, 6-[4-[[2-(3-Ethoxyphenyl)phenyl]methyl]piperazin-1-yl]-N-[4-(2-phenylsulfanylethylamino)-3-(trifluoromethyl)phenyl]sulfonylpyridazine-3-carboxamide]
14 | 21.4% | 11.4% | CCOc1cncc(-c2ccccc2CN2CCN(c3ccc(C(=O)NS(=O)(=O)c4ccc(NCCSc5ccccc5)c(C(F)(F)F)c4)nn3)CC2)c1 [B2R072-01, 6-[4-[[2-(5-Ethoxypyridin-3-yl)phenyl]methyl]piperazin-1-yl]-N-[4-(2-phenylsulfanylethylamino)-3-(trifluoromethyl)phenyl]sulfonylpyridazine-3-carboxamide]
15 | 24.0% | 0.0% | CCOc1cccc(-c2ccc(CN3CCN(c4ccc(C(=O)NS(=O)(=O)c5ccc(NCCSc6ccccc6)c(C(F)(F)F)c5)nn4)CC3)cc2C)c1 [B2R073-01, 6-[4-[[4-(3-Ethoxyphenyl)-3-methylphenyl]methyl]piperazin-1-yl]-N-[4-(2-phenylsulfanylethylamino)-3-(trifluoromethyl)phenyl]sulfonylpyridazine-3-carboxamide]
16 | 8.6% | 0.0% | CCOc1cccc(-c2ccc(CN3CCN(c4ccc(C(=O)NS(=O)(=O)c5ccc(NCCSc6ccccc6)c(C(F)(F)F)c5)nn4)CC3)c(CC)c2)c1 [B2R075-01, 6-[4-[[4-(3-Ethoxyphenyl)-2-ethylphenyl]methyl]piperazin-1-yl]-N-[4-(2-phenylsulfanylethylamino)-3-(trifluoromethyl)phenyl]sulfonylpyridazine-3-carboxamide]
17 | 3.9% | 19.7% | CCOc1cncc(-c2ccc(CN3CCN(c4ccc(C(=O)NS(=O)(=O)c5ccc(NCCSc6ccccc6)c(C(F)(F)F)c5)nn4)CC3)c(CC)c2)c1 [B2R076-01, 6-[4-[[4-(5-Ethoxypyridin-3-yl)-2-ethylphenyl]methyl]piperazin-1-yl]-N-[4-(2-phenylsulfanylethylamino)-3-(trifluoromethyl)phenyl]sulfonylpyridazine-3-carboxamide]
18 | 0.0% | 0.0% | CCOc1cccc(-c2ccc(CN3CCN(c4ccc(C(=O)NS(=O)(=O)c5ccc(NCCSc6ccccc6)c(C(F)(F)F)c5)nn4)CC3)cc2F)c1 [B2R077-01, 6-[4-[[4-(3-Ethoxyphenyl)-3-fluorophenyl]methyl]piperazin-1-yl]-N-[4-(2-phenylsulfanylethylamino)-3-(trifluoromethyl)phenyl]sulfonylpyridazine-3-carboxamide]
19 | 15.8% | 11.7% | CCOc1cncc(-c2ccc(CN3CCN(c4ccc(C(=O)NS(=O)(=O)c5ccc(NCCSc6ccccc6)c(C(F)(F)F)c5)nn4)CC3)cc2F)c1 [B2R078-01, 6-[4-[[4-(5-Ethoxypyridin-3-yl)-3-fluorophenyl]methyl]piperazin-1-yl]-N-[4-(2-phenylsulfanylethylamino)-3-(trifluoromethyl)phenyl]sulfonylpyridazine-3-carboxamide]
20 | 16.7% | 21.2% | CCOc1cncc(-c2ccc(CN3CCN(c4ccc(C(=O)NS(=O)(=O)c5ccc(NCCSc6ccccc6)c(C(F)(F)F)c5)nn4)CC3)c(OC)c2)c1 [B2R080-01, 6-[4-[[4-(5-Ethoxypyridin-3-yl)-2-methoxyphenyl]methyl]piperazin-1-yl]-N-[4-(2-phenylsulfanylethylamino)-3-(trifluoromethyl)phenyl]sulfonylpyridazine-3-carboxamide]
21 | 21.1% | −8.8% | CCOc1cccc(-c2cc(CN3CCN(c4ccc(C(=O)NS(=O)(=O)c5ccc(NCCSc6ccccc6)c(C(F)(F)F)c5)nn4)CC3)cc(OCC)c2)c1 [B2R081-01, 6-[4-[[3-Ethoxy-5-(3-ethoxyphenyl)phenyl]methyl]piperazin-1-yl]-N-[4-(2-phenylsulfanylethylamino)-3-(trifluoromethyl)phenyl]sulfonylpyridazine-3-carboxamide]
22 | 0.0% | 0.0% | CCOc1cncc(-c2cc(CN3CCN(c4ccc(C(=O)NS(=O)(=O)c5ccc(NCCSc6ccccc6)c(C(F)(F)F)c5)nn4)CC3)cc(OCC)c2)c1 [B2R082-01, 6-[4-[[3-Ethoxy-5-(5-ethoxypyridin-3-yl)phenyl]methyl]piperazin-1-yl]-N-[4-(2-phenylsulfanylethylamino)-3-(trifluoromethyl)phenyl]sulfonylpyridazine-3-carboxamide]
